Results from publication PMC5471521, “Novel selective β1-adrenoceptor antagonists for concomitant cardiovascular and respiratory disease” (The FASEB Journal, 2017).
Read-outs that look alike come from different tables or passages of the source.

Assays:
[1] = tested on: HR (β1) and HQC (β2) in conscious rats; experiment: In vivo β1- vs. β2-selectivity, oral administration, conscious rats (isoprenaline responses); design: species or system rat; conditions: for Effect on basal and isoprenaline-stimulated HR after oral gavage: lightly sedated rats dosed by oral gavage, measured once fully recovered
Experimental: Adult male Sprague-Dawley rats, weighing 300−400 g, were chronically instrumented with pulsed Doppler flow probes and intravascular catheters for cardiovascular monitoring and drug administration in a 2-stage surgical protocol as described ([51]). Surgery was performed under general anesthesia (fentanyl and medetomidine, 300 μg/kg of each, i.p.), with reversal and postoperative analgesia provided by atipamezole (1 mg/kg, s.c.) and buprenorphine (0.02 mg/kg, s.c.). Experiments were performed with animals that were fully conscious and unrestrained in home cages and given free access to food and water. Cardiovascular variables were recorded by using a customized, computer-based system (Instrument Development Engineering Evaluation, Maastrich Instruments Bv, Maastrich, The Netherlands) with raw data sampled every 2 ms. Hindquarters vascular conductance (HQC) was calculated as Doppler shift (flow)/mean arterial pressure.
Experiments ran over 3 consecutive days. Lightly sedated rats (propofol at 0.1–0.2 ml of 10 mg/ml, i.v.) that were instrumented for cardiovascular monitoring were administered an oral dose of NDD-825.HCl (1 mg/kg on d 1, 3 mg/kg on d 2, 10 mg/kg on d 3; 10 ml/kg in water) by oral gavage. Each day, responses to isoprenaline infusions were monitored before and at 0.5–1.5 and 3–4 h after oral NDD-825.HCl administration.
Isoprenaline responses shown are absolute values for HR and HQC before the first dose of isoprenaline (baseline) and during the third minute of infusion of each dose. Values at baseline and during the highest isoprenaline dose were tested for statistical significance by using a nonparametric ANOVA test with correction for repeat measures [Quade test ([52])]. A value of P < 0.05 was taken as significant.

[2] = tested on: panel of 80 receptors and ion channels; experiment: Cerep in vitro receptor selectivity profiling; type: binding; conditions: CGP20712A and LK204-545 at 10 μM, NDD-713 at 4.8 μM, NDD-825 at 2.4 μM
Experimental: Ki (inhibition constant) was calculated by using the Cheng-Prusoff equation from the mean of duplicate determinations in cell-based receptor radioligand-binding assays. Cerep in vitro pharmacology profiling service was used (see the Supplemental Data for a list of the assays used).

5-HT2B = 5-HT2B (Homo sapiens, UniProt P41595); experiment: Cerep receptor radioligand-binding assay; conditions: concentration-response, Cheng-Prusoff
Experimental: […]; Ki (inhibition constant) was calculated by using the Cheng-Prusoff equation from the mean of duplicate determinations in cell-based receptor radioligand-binding assays. Cerep in vitro pharmacology profiling service was used (see the Supplemental Data for a list of the assays used).

hERG channels = hERG channels (Homo sapiens, UniProt Q12809); experiment: hERG automated patch-clamp electrophysiology
Experimental: In addition, the potential of the compound to inhibit hERG channels was tested by using an automated patch-clamp electrophysiological assay (BioFocus, Cambridge, United Kingdom; using the Precision hERG-HEK recombinant cell line from on an Ion Works Quattro automated electrophysiology platform; Millipore, Billerica, MA, USA).

[3] = Lipophilicity (chromatographic logD); type: physicochemical; conditions: octanol/water, estimated from chromatographic retention
Experimental: Octanol–water partition coefficient values (logD) of NDD-713 and -825 were estimated as described in Lombardo et al. ([49]) by correlation of the chromatographic retention properties of compounds against the characteristics of standard compounds with known partition coefficient values. Studies were carried out by CDCO.

human β2-AR = molecular target: T1, human β2-AR (Homo sapiens, UniProt P07550); experiment: 3H-CGP12177 whole-cell binding in CHO-β2 cells; conditions: mean ± SEM, cells marked ^a are apparent log Kd (specific binding not fully inhibited)
T1 construct: expressed in transfected cells

[4] = Metabolic stability, human hepatocytes; type: in vitro ADME; conditions: cryopreserved hepatocytes
Experimental: (§1) NDD-713.HCl and -825.HCl were incubated (0.02, 0.1, or 0.5 μM at 37°C, 120 min) with human (XenoTech, Kansas City, KS, USA) or rat liver microsomes (BD Biosciences, Brea, CA, USA) at 0.4 mg/ml protein concentration. Metabolic reaction was initiated by addition of NADPH-regenerating system or NADPH-regenerating system with uridine diphosphate glucuronic acid. Samples were quenched at time points by acetonitrile addition. Control samples, which contained neither NADPH, nor uridine diphosphate glucuronic acid, were monitored for degradation. Compound concentrations were determined by ultraperformance LC-MS (UPLC-MS) relative to calibration standards that were prepared in quenched liver microsomes and fitted to exponential decay functions to determine first-order rate constants (k) for substrate depletion. These were used to calculate in vitro intrinsic clearance (CLint) values: CLint = k/microsomal protein content (0.4 mg protein/ml). Metabolic stability assays that used rat liver cytosol (BD Biosciences), human cryopreserved hepatocytes, or rat hepatocytes were carried out similarly. Average viable cell concentrations were determined by Trypan Blue exclusion methods (in the absence of test compounds). Studies were carried out by CDCO.

CaCo-2 cells = experiment: Bidirectional CaCo-2 permeability; type: in vitro ADME; conditions: for Apical-to-basolateral membrane permeability (class in words): bidirectional CaCo-2 assay; for Mass balance A-B: hydrochloride salts used
Experimental: (§2) CaCo-2 cells were grown in Transwell permeable supports, and confluency was assessed by transepithelial electrical resistance measurements (>270 Ω/cm^2) and by unidirectional permeability (apical-basolateral) of the low- and high-permeability reference compounds, ^14C-mannitol and ^3H-propranolol. NDD-713.HCl and -825.HCl (20 µM in HBSS that contained 20 mM HEPES, pH 7.4) were transferred to the donor compartment of Transwell plates and the acceptor compartments were filled with blank HBSS. Permeability was determined over 90 min by sampling both compartments. Quantitation of compound concentrations in donor and acceptor samples was by liquid chromatography–mass spectrometry (LC-MS; lower limit of quantification, 0.5–1.5 ng/ml), and for ^14C-mannitol and ^3H-propranolol, by liquid scintillation counting. Apparent permeability coefficients (Papp) were calculated as follows: Papp (cm/s) = dQ/dT × 1/(C0 × A), where dQ/dt = apparent steady-state transport rate (μmol/s); C0 = initial concentration in the chamber (μmol/cm^3); and A = surface area of CaCo-2 monolayer (0.3cm^2). Efflux ratios were calculated as the ratio of mean Papp values in B→A and A→B directions. Studies were carried out by CDCO.

[5] = Bidirectional CaCo-2 permeability; type: in vitro ADME; conditions: human, hydrochloride salts used; for efflux ratio at 90 min, 20 µM: Caco-2, pH 7.4, read-out: Efflux ratio Papp, B-A/Papp, A-B; for Papp A→B at 90 min, 20 µM: Caco-2, pH 7.4, 90 min, mean ± SD
Experimental: as §2

[6] = Metabolic stability, human liver microsomes; type: in vitro ADME; conditions: in the presence of NAD+, NADPH, or in the absence of cofactors
Experimental: as §1

[7] = pH 3, chromatographic estimate, read-out: Distribution coefficient, pH 3 (gLogDpH 3)
[8] = pH 7.4, chromatographic estimate, read-out: Distribution coefficient, pH 7.4 (gLogDpH 7.4)

hERG channels, sequence (Q12809 whole entry): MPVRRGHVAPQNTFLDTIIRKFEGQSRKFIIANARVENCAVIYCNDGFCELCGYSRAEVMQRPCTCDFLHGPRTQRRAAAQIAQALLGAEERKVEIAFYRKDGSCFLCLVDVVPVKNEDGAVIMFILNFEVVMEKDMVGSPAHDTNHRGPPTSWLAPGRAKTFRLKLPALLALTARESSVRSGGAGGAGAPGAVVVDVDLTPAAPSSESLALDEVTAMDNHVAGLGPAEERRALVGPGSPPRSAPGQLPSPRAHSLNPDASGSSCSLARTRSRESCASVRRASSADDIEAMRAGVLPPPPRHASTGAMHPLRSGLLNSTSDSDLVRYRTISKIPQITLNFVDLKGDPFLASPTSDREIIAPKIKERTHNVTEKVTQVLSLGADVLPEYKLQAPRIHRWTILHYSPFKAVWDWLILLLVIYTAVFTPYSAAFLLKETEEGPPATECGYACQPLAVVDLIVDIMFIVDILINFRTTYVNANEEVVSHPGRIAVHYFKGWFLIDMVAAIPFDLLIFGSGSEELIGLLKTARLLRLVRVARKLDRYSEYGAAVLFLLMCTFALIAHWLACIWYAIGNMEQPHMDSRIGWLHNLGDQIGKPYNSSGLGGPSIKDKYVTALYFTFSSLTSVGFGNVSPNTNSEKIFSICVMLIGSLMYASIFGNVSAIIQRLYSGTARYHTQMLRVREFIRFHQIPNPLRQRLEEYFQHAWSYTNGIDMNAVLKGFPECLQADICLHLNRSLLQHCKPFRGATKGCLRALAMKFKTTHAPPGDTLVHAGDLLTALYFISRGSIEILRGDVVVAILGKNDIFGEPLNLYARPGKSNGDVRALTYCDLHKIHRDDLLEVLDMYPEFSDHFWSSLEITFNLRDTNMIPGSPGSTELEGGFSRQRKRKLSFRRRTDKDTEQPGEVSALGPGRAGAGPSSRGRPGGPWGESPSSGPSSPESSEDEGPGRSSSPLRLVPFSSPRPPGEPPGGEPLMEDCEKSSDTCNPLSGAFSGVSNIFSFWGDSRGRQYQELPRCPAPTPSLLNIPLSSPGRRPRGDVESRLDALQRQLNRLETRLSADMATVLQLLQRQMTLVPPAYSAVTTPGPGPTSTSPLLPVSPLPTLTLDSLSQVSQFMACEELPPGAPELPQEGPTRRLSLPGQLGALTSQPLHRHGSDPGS
T1 sequence (P07550 whole entry): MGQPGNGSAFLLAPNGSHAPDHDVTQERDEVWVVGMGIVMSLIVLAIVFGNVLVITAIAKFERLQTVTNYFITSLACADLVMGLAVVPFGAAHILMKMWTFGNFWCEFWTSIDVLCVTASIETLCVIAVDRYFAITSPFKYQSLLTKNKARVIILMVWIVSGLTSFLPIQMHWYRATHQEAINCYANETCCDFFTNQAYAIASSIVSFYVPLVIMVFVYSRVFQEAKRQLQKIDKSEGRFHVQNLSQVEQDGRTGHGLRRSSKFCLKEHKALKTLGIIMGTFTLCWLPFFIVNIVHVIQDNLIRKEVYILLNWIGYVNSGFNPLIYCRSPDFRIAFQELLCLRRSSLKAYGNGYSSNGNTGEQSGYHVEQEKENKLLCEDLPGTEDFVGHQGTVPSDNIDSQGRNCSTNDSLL
5-HT2B, sequence (P41595 whole entry): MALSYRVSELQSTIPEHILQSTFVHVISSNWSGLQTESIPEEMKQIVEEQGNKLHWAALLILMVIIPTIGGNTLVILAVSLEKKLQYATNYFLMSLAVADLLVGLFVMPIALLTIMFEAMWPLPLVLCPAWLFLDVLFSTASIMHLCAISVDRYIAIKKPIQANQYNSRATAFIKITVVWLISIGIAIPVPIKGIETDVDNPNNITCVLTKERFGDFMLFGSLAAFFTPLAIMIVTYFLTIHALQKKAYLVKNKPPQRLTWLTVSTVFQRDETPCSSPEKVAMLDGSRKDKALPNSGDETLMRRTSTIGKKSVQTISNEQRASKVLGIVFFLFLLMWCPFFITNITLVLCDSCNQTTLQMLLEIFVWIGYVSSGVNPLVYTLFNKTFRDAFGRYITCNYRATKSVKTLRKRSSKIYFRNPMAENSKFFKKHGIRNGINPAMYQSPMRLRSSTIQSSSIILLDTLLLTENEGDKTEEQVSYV

Structure (SMILES) | Effect on basal and isoprenaline-stimulated HR after oral gavage [1] | Off-target binding in receptor and ion channel panel [2] | Ki (5-HT2B) | IC50 (hERG channels) | chromatographic logD [3, 7] | chromatographic logD [3, 8] | Kd (human β2-AR) | hepatocyte CLint [4] | Apical-to-basolateral membrane permeability (class in words) (CaCo-2 cells) | Mass balance A-B (CaCo-2 cells) | efflux ratio at 90 min, 20 µM [5] | Papp A→B at 90 min, 20 µM [5] | microsomal CLint [6] | Effect on basal HR ([1]; conscious rats, oral gavage 1 mg/kg (d 1), n = 3) | Lowering of basal HR and reduction in isoprenaline-stimulated HR ([1]; conscious rats, oral gavage 3 and 10 mg/kg on subsequent days, compared with 1 mg/kg) | Changes in HQC responses to isoprenaline ([1]; conscious rats, oral gavage, any dose level (1, 3, 10 mg/kg))
NC(=O)c1ccc(OCCNC[C@H](O)COc2ccc3c(c2)OC[C@@H](COCC2CC2)O3)cc1 [NDD-713] | caused a reduction of basal and isoprenaline-stimulated HR | poor affinity for most other GPCRs and ion channels | > 10 µM | > 10 µM | 1.7 | 2.3 | 8.91 µM | < 6 µL/min/1e6 cells | high | 76 ± 10% | < 3 | 25 ± 4 ×10⁻⁶ cm/s | < 0.16 µL/min/mg |  |  | 
O=C1NCc2cc(OCCNC[C@H](O)COc3ccc4c(c3)OC[C@@H](COCC3CC3)O4)ccc21 [NDD-825] | caused a reduction of basal and isoprenaline-stimulated HR | poor affinity for most other GPCRs and ion channels |  | > 10 µM | 1.5 | 2 | 5.37 µM | 6 µL/min/1e6 cells | intermediate | 79 ± 11% | < 3 | 6.5 ± 0.5 ×10⁻⁶ cm/s | < 0.16 µL/min/mg | small but significant lowering of basal HR | more pronounced | No significant changes
